US20210038547A1, “NEW USES AND APPLICATIONS OF DICARBOXYLIC ACIDS” (JEMYLL LIMITED, priority 2017, published 2021)

How the values were obtained:
oat = assay: Hydroponic oat grown with C12 in the water medium: grain composition; details: 10 g C12/L of water (10% C12)
Experimental: (§1) Hydroponic barley and oat grass was growth in fodder sprouting chambers at 21.5 to 23.5° C., with humidity of 65±5% and water temperature between 20° and 22° C. Grains were soaked in water until fully saturated, then drained and placed in trays or troughs, to facilitate sprouting, for 5 to 8 days. The grains were kept moist during this period. Grains were initially washed with a sterilizing solution to help minimize the risk of mold. Grass were provided with […] from day 3. C12 (0.1% as acid, 14.9% as potassium salt, 60% as sodium salt, and 25% as calcium salt) was added to the water medium in different concentrations, varying from 0%, to 2.5%, 5%, 10%, 15% and 20%. We measured grain composition at 10 g C12 in 1 L of water.

barley = assay: Hydroponic barley grown with C12 in the water medium: grain composition; details: 10 g C12/L of water (10% C12)
Experimental: as §1

[1] = system: Hy-Line Brown laying hens; assay: Laying hens fed a standard diet or a diet enriched with C12 (10%): egg productivity, egg quality, yolk cholesterol; type: in vivo
Description: Thirty Hy-Line Brown laying hens, 18 weeks of age, were free range-raised under natural light and dark cycle. The hens were divided into 2 groups and housed in different indoor pens (0.15 m^2/bird) equipped with feeders and drinkers, with access to open air runs (3 m^2/bird).
The diets were based on wheat and soybean meal with added dodecanedioic acid (C12) at 10% in the DAs diet, while they were free of dodecanedioic acid in the control diet. The diets were isocaloric and isonitrogenous containing 17.0% of crude protein (CP) and 2,680 kcal of metabolizable energy/kg of diet, in fact they were designed to meet or exceed the nutrient requirements for laying hens. The experimental diet was fed to the animals for 12 weeks. Feed and water were provided ad libitum throughout the entire trial.
Hens mortality or morbidity were recorded if occurred. Eggs were collected daily and egg production was calculated on per hen and per day basis. Eggs with any adhering manure were classified as dirty, and the percentage was then calculated.
Eggs were analyzed for interior and exterior physical quality, and were also examined for shell quality by specific gravity. Shell thickness (with shell membrane) of the eggs (10% of the daily egg produced) was measured by micrometer. Shell thickness was a mean value of measurements at 3 locations on the eggs (air cell; equator; and, sharp end). The breaking strength of untracked eggs was determined with a testing machine (model 1140, Instron Ltd., Bucks, UK). Egg components (albumen; yolk; and, shell) were measured by weekly breakouts on two eggs per replicate pen and expressed as percentage of egg weight.
Egg yolk color was scored using the 15-point scale (color scale from 15, dark orange to 1, light pale) of the DSM yolk color fan (DSM Nutritional Products Ltd., Basel, Switzerland).
The yolk cholesterol concentrations were determined by sampling weekly egg yolks (1 g) saponified with 20 ml of 33% ethanolic KOH in tightly-capped tubes placed in a 60° C. water bath for 1 hour. The mixture was then cooled in ice water, and 5 ml of distilled water was added. Cholesterol in unsaponifiable fractions was extracted twice with 5 ml of hexane. The resulting aliquot of hexane containing cholesterol was dried under nitrogen, re-dissolved in 5 ml of hexane, and injected into a gas chromatograph (Hewlett Packard, Palo Alto, Calif., Palo Alto, Calif., USA).
5 α-cholestane (Sigma-Aldrich) was used as an internal standard. A split inlet (using a split ratio of 100:1) was used to inject samples into a capillary column (HP-5, Agilent, Steven, Calif., USA; 30 m×0.53 mm×0.5 μm). Temperature conditions were as follows: […] oven temperature of 270° C. isothermal; detector temperature of 300° C.; and, inlet temperature of 210° C. The gas carrier was N2 kept at a constant flow rate of 1.0 ml/min.
Data were analyzed using the statistical package SPSS 13. Comparisons were made by the Mann Whitney U test since data were not normally distributed.

Which results are given for O=C(O)CCCCCCCCCCC(=O)O [C12, dodecanedioic acid]?
Ash % (oat): 4.06 ± 0.59%; Crude Fibre % (oat): 23.40 ± 4.04%; Crude Protein % (oat): 18.70 ± 2.28%; Dry matter (%) (oat): 90.00 ± 5.70%; Starch % (oat): 31.80 ± 8.11%; Ash % (barley): 3.40 ± 0.48%; Crude Fibre % (barley): 4.42 ± 0.38%; Crude Protein % (barley): 16.20 ± 0.62%; Dry matter (%) (barley): 90.40 ± 1.14%; Starch % (barley): 44.40 ± 3.51%; Yolk color ([1]; 10% C12 enriched diet vs standard diet): lighter color of the yolk; Hen mortality or morbidity ([1]; 12 weeks of feeding): No hen mortality or morbidity was observed; Dirty eggs (%) ([1]; diet with 10% C12 for 12 weeks): 0.38 ± 0.14%; Egg mass (g/hen per day) ([1]; diet with 10% C12 for 12 weeks): 54.56 ± 5.66 g/hen per day; Egg-laying rate (%) ([1]; diet with 10% C12 for 12 weeks): 90.30 ± 4.99%; Cholesterol content ([1]; diet with 10% C12 for 12 weeks, egg yolk, gas chromatography, FIG. 3: per 100 g of egg, in mg/100 g egg): 87.00 ± 14.27; Shell thickness (mm × 10^−2) ([1]; diet with 10% C12 for 12 weeks, mean of 3 locations, with shell membrane): 0.38 ± 0.037 mm × 10^−2; content of C12 in a yolk ([1]; female, Hy-Line Brown, hen (chicken), in vivo, 12 weeks): in a yolk ranged between 0.35 and 2.1 mg.
